Reference: patent US20240369511A1, “INTEGRATED ELECTROCHEMICAL APTASENSORS FOR MEASURING CELL DEATH AND CYTOKINE ACTIVITY FROM INTACT TISSUE SAMPLES” (University of Washington, priority 2023, published 2024)
Several values for one entry are separate records, joined by “and”; a condition that tells them apart may be missing. Identical values can stand only once.

Legend:
CytC [1] = target: T1, CytC (Homo sapiens, UniProt P99999); test: CytC aptasensor calibration curve by square wave voltammetry; assay type: binding
T1 construct: purchased RayBiotech Life, Inc (GA, USA)
T1 sequence (P99999 whole entry): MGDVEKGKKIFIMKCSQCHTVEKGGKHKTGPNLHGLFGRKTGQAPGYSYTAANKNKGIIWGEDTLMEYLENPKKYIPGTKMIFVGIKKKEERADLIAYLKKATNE
Excerpt: (§1) Characterization of the electrochemical aptamer-based sensor. An electrochemical sensor with a modified aptamer that recognizes CytC was developed, enabling real-time monitoring of CytC increases in the supernatant due to cell death in cuboids during drug screening. The aptamer sequences were modified with a redox-active molecule, methylene blue (MB), at the distal end of the aptamer. As shown at FIG. 2A, the binding of the CytC target induces a rapid and reversible conformational change in the aptamer, increasing the electron transfer (eT) rate between the MB reporter and the WE surface. This change in eT results in a measurable variation in redox current, easily detectable using square wave voltammetry (SWV). Changes in peak current height were monitored, which correlates with the proximity of the MB redox tag to the electrode. The performance of the aptasensors in response to varying concentrations of CytC (ranging from 1 to 30,000 ng/mL) is presented at FIG. 2B. At a recording frequency of 50 Hz, the peak current height of the sensors decreases as the CytC concentration increases.
Electrochemical signal measurement. All the electrochemical measurements were performed using a Digi-Ivy potentiostat (DY-2219, Digi-Ivy, Austin, TX, USA). For the SWV measurements, the sensors were integrated from 0.0 to −0.5 V (versus Ag/AgCl) with 40-mV amplitude and a voltage increment of 1 mV suitable frequency setting (ranging from 10 Hz to 1,000 Hz). A conventional three-electrode cell was used in electrodeposition, Ag/AgCl with 3M KCl as reference electrode, and platinum wire (0.05 mm diameter, Alfa Aesar, MA, USA) as counter electrode.
Quantitative analysis and characterization of the Cyt C aptamer sensor. The CytC sensors were characterized in cultured medium DMEM-F12-10% FBS with spiked human CytC recombinant (reconstituted in PBS). The SWV measurement for aptasensors was scanned from −0.5 V to 0 V with 40-mV amplitude and a step potential of 1 mV. The frequency is 50 Hz and 1,000 Hz.

CytC [2] = target: T1, CytC; test: Binding kinetics of the CytC aptasensor (temporal response, flow injection analysis)
Excerpt: Binding kinetics of the CytC aptasensor. The binding kinetics of aptamer-protein complexes were further evaluated. […] Next, the monomolecular dissociation rate constant (koff) was computed. The aptasensor platform was adapted for flow injection analysis under constant flow. The sensor platform was modified to incorporate an inlet and outlet loop injection system. With this setup, the different phases of aptamer-target interaction were able to be measured, including association, dissociation, and equilibrium. […] Initially, the aptamer remained unbound in the absence of the target, producing baseline levels of current. The introduction of the target initiated the association phase, which led to the occupation of aptamer binding sites. This phase continued until a steady-state or equilibrium point was attained. Subsequently, the semi-automated target removal initiated the dissociation phase of the aptamer-target complex. The continuous flow of the medium enabled the aptasensor to recover eventually, gradually returning to the baseline levels within approximately 12 hrs.
Modify sensor platform to become injection analysis platform for characterization of binding kinetics. The existing platform was modified by introducing an additional PMMA layer to establish channels and the well layer altered to create a sealed chamber for flow injection. The PMMA layer (0.3 mm thick) was lined with 3M300LSE adhesive before being precisely cut using a CO2 laser. The culture medium was injected through tubing (Tygona, Cole-Parmer, IL, USA) connected to the injector loop at a 2.5 mL/min flow rate using a Fusion 200 syringe pump (Chemyx, Inc, TX, USA). Following a 5-minute equilibration period during which the sensors were exposed to continuous medium flow, CytC was introduced into the flow as the target compound.

CytC [3] = target: T1, CytC; test: Selectivity of the CytC aptasensor against interferents and drugs; assay type: binding
Experimental: Selectivity of the CytC aptasensor. Selectivity is a factor for the practical application of these sensors in tumor-on-a-chip models for drug screening. To assess the selectivity of the sensors, experiments were conducted in which the sensor's responses to CytC (100 ng/mL) vs. responses in the presence of other potentially interfering molecules (also at 100 ng/mL) were measured. Measurements were performed in a growth medium at 50 Hz.
Ex-vivo monitoring of CytC from microdissected tumor tissues after drug treatment in culture using the aptasensor platform. The sensor platform's ability to quantify CytC secretion from cuboids was evaluated at different time points during an extended culture period (48 hrs). Cuboids from human U87 glioma cell-derived tumors grown in athymic nude mice were prepared. […] Next, the sensor platform's ability to measure CytC secretion from cuboids in response to exposure to cytotoxic drugs was evaluated. Initially, the baseline signal was measured with the encapsulated cuboids on the WE before exposing U87 cuboids to different concentrations of cisplatin (a cytotoxic chemotherapy drug, FIG. 5C), sepantronium bromide, (YM-155, a survivin inhibitor and potential anti-cancer drug, FIG. 5D), and mocetinostat (MOC, a histone deacetylases inhibitor cancer drug, FIG. 5E) for 48 hrs. […]

[4] = system: U87 glioma xenograft cuboids; test: On-device aptasensor monitoring of CytC secretion from drug-treated cuboids; assay type: cell-based; settings: for CytC level vs control: 12 to 48 hrs
Experimental: Ex-vivo monitoring of CytC from microdissected tumor tissues after drug treatment in culture using the aptasensor platform. The sensor platform's ability to quantify CytC secretion from cuboids was evaluated at different time points during an extended culture period (48 hrs). Cuboids from human U87 glioma cell-derived tumors grown in athymic nude mice were prepared. After overnight culture in a 96-well plate to allow recovery from tissue damage due to the cutting procedure, the cuboids were transferred onto the sensor platform for measurement. To prevent random adhesion of the cuboids to the sensor surface and improve the precise localization of CytC secretion detection, the cuboids were encapsulated in a hydrogel. They were mixed with hydrogel before transferring onto the sensors and immobilizing them to a restricted area just above the working electrode (FIGS. 5A-5B). […] Encapsulation of cells in hydrogels in close proximity to the WE also generates a more localized and distinguishable electrochemical response. Hydrogels can be used as a protective layer to ensure the long-term stability of aptasensors. A polysaccharide hydrogel (Cellink, Bioink, Boston, USA) that contains nanofibrillar cellulose and sodium alginate was used. […] It was also observed that the performance of the sensors remained unhindered regardless of the hydrogel concentration, apart from an extension of the reaction time to approximately 30 min. […] Next, the sensor platform's ability to measure CytC secretion from cuboids in response to exposure to cytotoxic drugs was evaluated. Initially, the baseline signal was measured with the encapsulated cuboids on the WE before exposing U87 cuboids to different concentrations of cisplatin (a cytotoxic chemotherapy drug, FIG. 5C), sepantronium bromide, (YM-155, a survivin inhibitor and potential anti-cancer drug, FIG. 5D), and mocetinostat (MOC, a histone deacetylases inhibitor cancer drug, FIG. 5E) for 48 hrs. […] These observations were consistent with fluorescence-based findings and agreed with the sensor-based responses. […]

[5] = system: U87 glioma xenograft cuboids; test: Terminal SYTOX green dead stain fluorescence of cuboids; assay type: cell-based; settings: 48 hrs
Cytochrome c (CytC) = Cytochrome c (CytC) (Homo sapiens, UniProt P99999 P99999:2-105); test: apparent KD, electrochemical aptamer sensor on Au, square wave voltammetry 50 Hz, Langmuir-Hill fit; text also prints 515±130 μM (6.19 ng/mL corresponds to abou); settings: tags: RayBiotech Life recombinant human cytochrome c; label: 3' methylene blue
Cytochrome c (CytC), sequence (P99999 2-105, one chain of several): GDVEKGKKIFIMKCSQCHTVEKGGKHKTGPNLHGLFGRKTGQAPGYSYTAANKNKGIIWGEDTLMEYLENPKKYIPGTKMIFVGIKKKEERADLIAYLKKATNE
Excerpt: as §1

Molecule: 5′-/ThioMC6-D/CC GTGTCTGGGGCCGACCGGCGCATTGGGTACGTTGTTGC/AmMO/-3′ (DNA CCGTGTCTGGGGCCGACCGGCGCATTGGGTACGTTGTTGC; chemistry not fully specified) [CytC aptasensor, DNA aptamer recognizing cytochrome C, modified with methylene blue redox reporter, immobilized on gold working electrode]
- detectable relevant concentrations (CytC [1]; 50 Hz): up to 3.32 μM
- dynamic range (CytC [1]; 50 Hz): up to 39,580 ng/mL
- apparent dissociation constant, KD (CytC [1]; calibration curve at 50 Hz, nonlinear regression fit to Langmuir-Hill isotherm): 6.19 ± 1.57 ng/mL and ~6 ng/mL
- time to return to baseline (dissociation) (CytC [2]): 12 h
- response time to target (CytC [2]; after addition of 1,000 ng/ml CytC, SWV 50 Hz): ≤ 100 s
- time to return to baseline levels (dissociation) (CytC [2]; continuous flow of medium after target removal): approximately 12 hrs
- signal gain for CytC vs interfering molecules (CytC [3]; CytC 100 ng/mL vs FGF, EGF, IL-2, BSA at 100 ng/mL, growth medium, 50 Hz): higher signal gain
- signal gain for CytC vs drugs used for treatment (CytC [3]; CytC 100 and 2000 ng/mL vs DMSO, MOC, FOLFOX, Cisplatin, Staurosporine, YM-155, culture medium, 50 Hz, 1,000 Hz, KDM): higher signal gain

Molecule: Nc1ccccc1NC(=O)c1ccc(CNc2nccc(-c3cccnc3)n2)cc1 [MOC, mocetinostat]
- CytC production rate vs DMSO control ([4]; 10 μM MOC, 48 hrs, not statistically significant): higher average CytC production rate than the DMSO control
- SG dead stain fluorescence vs DMSO control ([5]; 10 μM MOC): slightly elevated SG dead stain fluorescence

Molecule: N.N.[Cl][Pt][Cl] [cisplatin]
- CytC level vs control ([4]; 30 μM cisplatin): higher CytC level compared to the control
- CytC level vs control ([4]; 100 μM cisplatin): highest levels of CytC
- SG dead stain fluorescence vs control ([5]; 30 μM cisplatin): higher SG dead stain fluorescence
- SG dead stain fluorescence vs control ([5]; 100 μM cisplatin): higher SG dead stain fluorescence

B1: CytC aptamer (SEQ ID NO:1) (ssDNA)
DNA: CCGTGTCTGGGGCCGACCGGCGCATTGGGTACGTTGTTGC
modifications: 5' ThioMC6-D (disulfide C6 thiol, attached to gold electrode); 3' amino modifier conjugated to methylene blue
- binding result (Cytochrome c (CytC)): binds
